Laboratory results published in patent publication US9510598B2, “Nitrogen-containing heterocyclic compounds for plant disease control” (BAYER CROPSCIENCE AG, priority 2012, dated 2016).

Format: physicochemical
Details: HPLC on reversed phase columns, method [a]: pH 2.7, 0.1% formic acid in water / acetonitrile, linear gradient 10% to 95% acetonitrile

Row | log P | Structure (SMILES)
1 | 3.37[a] | C=C(C)C1(C(=O)NCCCOCC)CC(c2ccc3ncc(Br)cc3c2)=NO1 (stereo not drawn) [compound 518]
2 | 3.06[a] | C#Cc1cnc2c(C)cc(C3=NOC(C)(C(=O)NC(C)C)C3)cc2c1 (stereo not drawn) [compound 571]
3 | 3.51[a] | Cc1cc(C2=NOC(C)(C(=O)NC(C)C)C2)cc2cc(Br)cnc12 (stereo not drawn) [compound 573]
4 | 2.62[a] | COC1(C(=O)NCc2cnc(C)cn2)CC(c2cc(Cl)c3ncc(Br)cc3c2)=NO1 (stereo not drawn) [compound 575]
5 | 3.33[a] | COC1(C(=O)NC2CCC2)CC(c2cc(Cl)c3ncc(Br)cc3c2)=NO1 (stereo not drawn) [compound 576]
6 | 3.19[a] | CCOCCCNC(=O)C1(OC)CC(c2cc(Cl)c3ncc(Br)cc3c2)=NO1 (stereo not drawn) [compound 577]
7 | 3.25[a] | C#Cc1cnc2c(C)cc(C3=NOC(C)(C(=O)NC4CCC4)C3)cc2c1 (stereo not drawn) [compound 578]
8 | 3.71[a] | Cc1cc(C2=NOC(C)(C(=O)NC3CCC3)C2)cc2cc(Br)cnc12 (stereo not drawn) [compound 579]
9 | 2.62[a] | C#Cc1cnc2c(C)cc(C3=NOC(C)(C(=O)NCc4cn(CC)nc4C)C3)cc2c1 (stereo not drawn) [compound 581]
10 | 2.90[a] | CCOCCCNC(=O)C1(C(C)=O)CC(c2ccc3ncc(Br)cc3c2)=NO1 (stereo not drawn) [compound 582]
11 | 2.53[a] | C#Cc1cnc2c(Cl)cc(C3=NOC(OC)(C(=O)NCc4cn(CC)nc4C)C3)cc2c1 (stereo not drawn) [compound 587]
12 | 2.80[a] | C#Cc1cnc2c(Cl)cc(C3=NOC(OC)(C(=O)NCc4cn(CCC)nc4C)C3)cc2c1 (stereo not drawn) [compound 588]
13 | 2.82[a] | C#Cc1cnc2c(Cl)cc(C3=NOC(OC)(C(=O)NCC4COC(C)(C)O4)C3)cc2c1 (stereo not drawn) [compound 589]
14 | 2.84[a] | C#Cc1cnc2c(Cl)cc(C3=NOC(OC)(C(=O)NC(C)C)C3)cc2c1 (stereo not drawn) [compound 590]
15 | 2.37[a] | C#Cc1cnc2c(Cl)cc(C3=NOC(OC)(C(=O)NCc4cnc(C)cn4)C3)cc2c1 (stereo not drawn) [compound 591]
16 | 3.02[a] | C#Cc1cnc2c(Cl)cc(C3=NOC(OC)(C(=O)NC4CCC4)C3)cc2c1 (stereo not drawn) [compound 592]
17 | 2.88[a] | C#Cc1cnc2c(Cl)cc(C3=NOC(OC)(C(=O)NCCCOCC)C3)cc2c1 (stereo not drawn) [compound 594]
18 | 2.96[a] | CCn1cc(CNC(=O)C2(OC)CC(c3cc(C)c4ncc(Br)cc4c3)=NO2)c(C)n1 (stereo not drawn) [compound 600]

Row | log P | Structure (SMILES)
19 | 3.33[a] | COC1(C(=O)NCC2COC(C)(C)O2)CC(c2cc(C)c3ncc(Br)cc3c2)=NO1 (stereo not drawn) [compound 601]
20 | 3.58[a] | COC1(C(=O)NC2CCC2)CC(c2cc(C)c3ncc(Br)cc3c2)=NO1 (stereo not drawn) [compound 603]
21 | 2.94[a] | C#Cc1cnc2c(C)cc(C3=NOC(OC)(C(=O)NC(C)C)C3)cc2c1 (stereo not drawn) [compound 604]
22 | 2.92[a] | C#Cc1cnc2c(C)cc(C3=NOC(OC)(C(=O)NCC4COC(C)(C)O4)C3)cc2c1 (stereo not drawn) [compound 605]
23 | 3.00[a] | C#Cc1cnc2c(C)cc(C3=NOC(OC)(C(=O)NCCCOCC)C3)cc2c1 (stereo not drawn) [compound 607]
24 | 3.37[a] | COC1(C(=O)NC(C)C)CC(c2cc(C)c3ncc(Br)cc3c2)=NO1 (stereo not drawn) [compound 608]
25 | 2.62[a] | C#Cc1cnc2c(C)cc(C3=NOC(OC)(C(=O)NCc4cn(CC)nc4C)C3)cc2c1 (stereo not drawn) [compound 609]
26 | 2.90[a] | C#Cc1cnc2c(C)cc(C3=NOC(OC)(C(=O)NCc4cn(CCC)nc4C)C3)cc2c1 (stereo not drawn) [compound 610]
27 | 2.46[a] | C#Cc1cnc2c(C)cc(C3=NOC(OC)(C(=O)NCc4cnc(C)cn4)C3)cc2c1 (stereo not drawn) [compound 611]
28 | 3.15[a] | C#Cc1cnc2c(C)cc(C3=NOC(OC)(C(=O)NC4CCC4)C3)cc2c1 (stereo not drawn) [compound 612]
29 | 2.94[a] | C#CC1(C(=O)NCCCOCC)CC(c2ccc3ncc(Br)cc3c2)=NO1 (stereo not drawn) [compound 627]
30 | 1.96[a] | C#Cc1cnc2ccc(C3=NOC(C)(C(=O)NCc4ccc(OC)cn4)C3)cc2c1 (stereo not drawn) [compound 631]
31 | 2.35[a] | C#Cc1cnc2ccc(C3=NOC(C)(C(=O)NCc4cn(CC)nc4OC)C3)cc2c1 (stereo not drawn) [compound 637]
32 | 2.05[a] | C#Cc1cnc2ccc(C3=NOC(C)(C(=O)NCCF)C3)cc2c1 (stereo not drawn) [compound 640]
33 | 2.23[a] | C#Cc1cnc2ccc(C3=NOC(C)(C(=O)NCc4nc(C)cc(C)n4)C3)cc2c1 (stereo not drawn) [compound 643]
34 | 2.26[a] | C#Cc1cnc2ccc(C3=NOC(C)(C(=O)NCC(F)F)C3)cc2c1 (stereo not drawn) [compound 652]
35 | 2.96[a] | C#Cc1cnc2ccc(C3=NOC(C)(C(=O)NCc4cn(CCCCC)nc4C)C3)cc2c1 (stereo not drawn) [compound 654]
36 | 2.64[a] | C#Cc1cnc2ccc(C3=NOC(C)(C(=O)NCc4cn(CCCC)nc4C)C3)cc2c1 (stereo not drawn) [compound 656]

The remaining lines, values behind:

Row | Structure (SMILES) | log P
37 | C#Cc1cnc2ccc(C3=NOC(C)(C(=S)NCC4COC(C)(C)O4)C3)cc2c1 (stereo not drawn) [compound 513] | 3.44[a]
38 | C=C(C)C1(C(=O)NCc2cn(CCC)nc2C)CC(c2ccc3ncc(Br)cc3c2)=NO1 (stereo not drawn) [compound 519] | 3.17[a]
39 | C=C(C)C1(C(=O)NC2CCC2)CC(c2ccc3ncc(Br)cc3c2)=NO1 (stereo not drawn) [compound 521] | 3.61[a]
40 | C=C(C)C1(C(=O)NCc2cn(CC)nc2C)CC(c2ccc3ncc(Br)cc3c2)=NO1 (stereo not drawn) [compound 526] | 2.91[a]
41 | CC(C)NC(=O)C1(C(C)O)CC(c2ccc3ncc(Br)cc3c2)=NO1 (stereo not drawn) [compound 552] | 2.23[a]
42 | CC(O)C1(C(=O)NC2CCC2)CC(c2ccc3ncc(Br)cc3c2)=NO1 (stereo not drawn) [compound 563] | 2.41[a]
43 | CCn1cc(CNC(=O)C2(C)CC(c3cc(C)c4ncc(Br)cc4c3)=NO2)c(C)n1 (stereo not drawn) [compound 580] | 2.96[a]
44 | CC(=O)C1(C(=O)NC2CCC2)CC(c2ccc3ncc(Br)cc3c2)=NO1 (stereo not drawn) [compound 583] | 3.06[a]
45 | CC(=O)C1(C(=O)NCc2cnc(C)cn2)CC(c2ccc3ncc(Br)cc3c2)=NO1 (stereo not drawn) [compound 584] | 2.37[a]
46 | CCn1cc(CNC(=O)C2(C(C)=O)CC(c3ccc4ncc(Br)cc4c3)=NO2)c(C)n1 (stereo not drawn) [compound 585] | 2.53[a]
47 | CCCn1cc(CNC(=O)C2(C(C)=O)CC(c3ccc4ncc(Br)cc4c3)=NO2)c(C)n1 (stereo not drawn) [compound 586] | 2.80[a]
48 | C#Cc1cnc2ccc(C3=NOC(C)(C(=O)NC4CCN(C)CC4)C3)cc2c1 (stereo not drawn) [compound 598] | 1.17[a]
49 | C#Cc1cnc2ccc(C3=NOC(C(=O)NC(C)C)(C(F)F)C3)cc2c1 (stereo not drawn) [compound 616] | 2.73[a]
50 | CC(C)NC(=O)C1(C(F)F)CC(c2ccc3ncc(I)cc3c2)=NO1 (stereo not drawn) [compound 620] | 3.17[a]
51 | CC1(C)OCC(CNC(=O)C2(C(F)F)CC(c3ccc4ncc(Br)cc4c3)=NO2)O1 (stereo not drawn) [compound 622] | 2.96[a]
52 | C#CC(C)(C)NC(=O)C1(C)CC(c2ccc3ncc(Br)cc3c2)=NO1 (stereo not drawn) [compound 624] | 3.08[a]
53 | C#CC1(C(=O)NC2CCC2)CC(c2ccc3ncc(Br)cc3c2)=NO1 (stereo not drawn) [compound 625] | 3.11[a]
54 | C#CC1(C(=O)NCc2cn(CC)nc2C)CC(c2ccc3ncc(Br)cc3c2)=NO1 (stereo not drawn) [compound 626] | 2.57[a]
55 | C#CC1(C(=O)NCc2cnc(C)cn2)CC(c2ccc3ncc(Br)cc3c2)=NO1 (stereo not drawn) [compound 628] | 2.41[a]
56 | C#Cc1cnc2ccc(C3=NOC(C)(C(=O)NCc4cn(C5CCCC5)nc4C)C3)cc2c1 (stereo not drawn) [compound 629] | 2.71[a]

Row | Structure (SMILES) | log P
57 | Cc1nn(C2CCCC2)cc1CNC(=O)C1(C)CC(c2ccc3ncc(Br)cc3c2)=NO1 (stereo not drawn) [compound 630] | 3.04[a]
58 | C#Cc1cnc2ccc(C3=NOC(C)(C(=O)NCc4cn(C5CCC5)nc4C)C3)cc2c1 (stereo not drawn) [compound 632] | 2.63[a]
59 | Cc1nn(C2CCC2)cc1CNC(=O)C1(C)CC(c2ccc3ncc(Br)cc3c2)=NO1 (stereo not drawn) [compound 633] | 2.92[a]
60 | C#Cc1cnc2ccc(C3=NOC(C)(C(=O)NCc4cn(CC)nc4Br)C3)cc2c1 (stereo not drawn) [compound 634] | 2.56[a]
61 | C#Cc1cnc2ccc(C3=NOC(C)(C(=O)NCc4cn(CC)nc4SC)C3)cc2c1 (stereo not drawn) [compound 635] | 2.51[a]
62 | CCn1cc(CNC(=O)C2(C)CC(c3ccc4ncc(Br)cc4c3)=NO2)c(Br)n1 (stereo not drawn) [compound 636] | 2.86[a]
63 | CCn1cc(CNC(=O)C2(C)CC(c3ccc4ncc(Br)cc4c3)=NO2)c(SC)n1 (stereo not drawn) [compound 638] | 2.78[a]
64 | CCn1cc(CNC(=O)C2(C)CC(c3ccc4ncc(Br)cc4c3)=NO2)c(OC)n1 (stereo not drawn) [compound 639] | 2.63[a]
65 | CC1(C(=O)NCCF)CC(c2ccc3ncc(Br)cc3c2)=NO1 (stereo not drawn) [compound 641] | 2.30[a]
66 | CC1(C(=O)NCc2ccncn2)CC(c2ccc3ncc(Br)cc3c2)=NO1 (stereo not drawn) [compound 642] | 2.01[a]
67 | COc1cccnc1CNC(=O)C1(C)CC(c2ccc3ncc(Br)cc3c2)=NO1 (stereo not drawn) [compound 644] | 2.26[a]
68 | C#Cc1cnc2ccc(C3=NOC(C)(C(=O)NCc4ncccc4OC)C3)cc2c1 (stereo not drawn) [compound 645] | 2.01[a]
69 | CC1(C(=O)NCc2cnn(CC(F)F)c2)CC(c2ccc3ncc(Br)cc3c2)=NO1 (stereo not drawn) [compound 646] | 2.42[a]
70 | C#Cc1cnc2ccc(C3=NOC(C)(C(=O)NCc4cnn(CC(F)F)c4)C3)cc2c1 (stereo not drawn) [compound 647] | 2.17[a]
71 | C#Cc1cnc2ccc(C3=NOC(C)(C(=O)NCc4nc(C)cs4)C3)cc2c1 (stereo not drawn) [compound 648] | 2.26[a]
72 | Cc1csc(CNC(=O)C2(C)CC(c3ccc4ncc(Br)cc4c3)=NO2)n1 (stereo not drawn) [compound 649] | 2.56[a]
73 | C#Cc1cnc2ccc(C3=NOC(C)(C(=O)N(OC)C(C)C)C3)cc2c1 (stereo not drawn) [compound 650] | 3.15[a]
74 | CON(C(=O)C1(C)CC(c2ccc3ncc(Br)cc3c2)=NO1)C(C)C (stereo not drawn) [compound 651] | 3.59[a]
75 | CC1(C(=O)NCC(F)F)CC(c2ccc3ncc(Br)cc3c2)=NO1 (stereo not drawn) [compound 653] | 2.56[a]
76 | CCCCCn1cc(CNC(=O)C2(C)CC(c3ccc4ncc(Br)cc4c3)=NO2)c(C)n1 (stereo not drawn) [compound 655] | 3.31[a]

Same assay, conditions: method [a]: HPLC/LC-MS on reversed phase at pH 2.7, 0.1% formic acid in water / acetonitrile, gradient 10% to 95% acetonitrile

Row | Structure (SMILES) | log P
77 | CCC1(C(=O)NCC2COC(C)(C)O2)CC(c2ccc3ncc(Br)cc3c2)=NO1 (stereo not drawn) [compound 499] | 2.99[a]
78 | CC(C)NC(=O)C1(C)CC(c2ccc3nc(C#N)c(I)cc3c2)=NO1 (stereo not drawn) [compound 510] | 3.04[a]
